Reference: patent US7083940B2, “Pregnancy-associated plasma protein-A2 (PAPP-A2)” (Como Biotech ApS, priority 2000, dated 2006)

Test system: rIGFBP-5
Assay: Ligand blotting with radiolabeled IGF-II, activity of PAPP-A2 against IGFBP-5
Format: biochemical
Details: medium from cells transfected with pPA2
Procedure: Medium from 293T cells transfected with empty vector (−), or cDNA encoding PAPP-A2 (pPA2) (+) was incubated with each of the six IGFBPs (BP1–BP6), and the activity was assessed by ligand blotting using radiolabeled IGF-II.
Ligand blotting (Conover et al., 1993, J Clin Invest 91, 1129–37) with radiolabeled IGF-II (Bachem) was used to assay for activity against IGFBP-1 (from HepG2 conditioned medium), rIGFBP-2 (GroPep), rIGFBP-3 (gift of D. Powell), rIGFBP-4 (Austral), rIGFBP-5 (gift of D. Andress), and rIGFBP-6 (Austral). […] Experiments were carried out with media from cells transfected with pPA2 or empty vector.

PAPP-A2: recombinant pregnancy-associated plasma protein-A2, SEQ ID NO:2, metzincin metalloproteinase expressed in 293T cells
Dependence of cleavage on IGF: independent of the presence of IGF
